# Measurements taken from ChEMBL document CHEMBL5532638, “Current development of 1,2,3-triazole derived potential antimalarial scaffolds: Structure- activity relationship (SAR) and bioactive compounds” (Eur J Med Chem, 2023).
# Columns and labels:
# Plasmodium falciparum [1] = experiment: Antiplasmodial activity against Plasmodium falciparum infected in O+ RBCs assessed as parasite growth inhibition incubated for 36 to 40 hrs by JSB staining based analysis; assay type: functional, organism-based, RBC
# Plasmodium falciparum [2] = experiment: Antiplasmodial activity against CQ-sensitive Plasmodium falciparum F32 Tanzania assessed as parasite growth inhibition incubated for 48 hrs; assay type: functional, organism-based, RBC; conditions: Erythrocyte
# Plasmodium falciparum [3] = experiment: Antiplasmodial activity against CQ-resistant Plasmodium falciparum 2/K-1 infected in human O+ red blood cells assessed as parasite growth inhibition incubated for 72 hrs by Malstat assay; assay type: functional, organism-based, Red blood cell; conditions: 2/K-1, Erythrocyte
# Plasmodium falciparum [4] = experiment: Antiplasmodial activity against CQ-resistant Plasmodium falciparum FCR-3/Gambia subline F-86 infected in erythrocytes assessed as parasite growth inhibition incubated for 24 hrs by [3H]-hypoxanthine incorporation assay; assay type: functional, organism-based; conditions: FCR-3/Gambia subline F-86, Erythrocyte
# Plasmepsin II = Plasmepsin II (Plasmodium falciparum, UniProt P46925); experiment: Inhibition of Plasmodium falciparum Plm-II using DABCYL-Glu-Arg-Nle-Phe-Leu-Ser-Phe-Pro-EDANS as substrate preincubated for 30 mins followed by substrate addition measured after 8 to 15 mins by FRET assay
# Sequence of Plasmepsin II (P46925 whole entry): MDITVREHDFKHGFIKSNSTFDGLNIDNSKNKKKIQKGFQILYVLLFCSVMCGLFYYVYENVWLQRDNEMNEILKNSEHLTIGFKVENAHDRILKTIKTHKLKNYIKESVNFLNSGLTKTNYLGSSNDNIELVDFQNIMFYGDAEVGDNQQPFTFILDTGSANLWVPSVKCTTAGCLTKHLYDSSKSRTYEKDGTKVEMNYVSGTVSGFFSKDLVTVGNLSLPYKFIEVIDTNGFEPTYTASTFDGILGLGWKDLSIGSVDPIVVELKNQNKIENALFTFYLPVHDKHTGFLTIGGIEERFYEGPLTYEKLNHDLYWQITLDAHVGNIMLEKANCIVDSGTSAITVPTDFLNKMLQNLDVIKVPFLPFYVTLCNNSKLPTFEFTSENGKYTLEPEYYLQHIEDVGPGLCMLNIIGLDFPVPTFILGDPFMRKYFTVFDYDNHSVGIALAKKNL
# Plasmodium falciparum [5] = experiment: Antiplasmodial activity against Plasmodium falciparum 3D7 assessed as parasite growth inhibition incubated for 24 hrs by [3H]-hypoxanthine incorporation assay; assay type: functional, organism-based
# [6] = Cytotoxicity against human Huh-7 cells incubated for 48 hrs by MTT assay; assay type: toxicity, cell-based
# Plasmodium falciparum [7] = experiment: Antiplasmodial activity against CQ-sensitive Plasmodium falciparum 3D7 at trophozoite stage infected in human O+ RBCs assessed as parasite growth inhibition by SYBR Green I staining based analysis; assay type: functional, organism-based, RBC; conditions: 3D7, Erythrocyte
# Plasmodium falciparum [8] = experiment: Antiplasmodial activity against CQ-resistant Plasmodium falciparum RKL-9 at trophozoite stage infected in human O+ RBCs assessed as parasite growth inhibition by SYBR Green I staining based analysis; assay type: functional, organism-based, RBC; conditions: RKL-9, Erythrocyte
# Plasmodium falciparum [9] = experiment: Antiplasmodial activity against Plasmodium falciparum K1 infected in O+ RBCs assessed as parasite growth inhibition incubated for 36 to 40 hrs by Geimsa staining based analysis; assay type: functional, organism-based, RBC; conditions: K1, Erythrocyte
# Plasmodium falciparum [10] = experiment: Antimalarial activity against CQ-resistant Plasmodium falciparum RKL-9 field isolate at asexual stage assessed as parasite growth inhibition incubated for 22 to 36 hrs by SMI assay; assay type: functional, organism-based
# Plasmodium falciparum [11] = experiment: Antiplasmodial activity against CQ-sensitive Plasmodium falciparum 3D7 assessed as parasite growth inhibition; assay type: functional, organism-based
# Plasmodium falciparum [12] = experiment: Antiplasmodial activity against CQ-sensitive Plasmodium falciparum 3D7 infected in red blood cells assessed as parasite growth inhibition incubated for 72 hrs by SYBR Green I staining based analysis; assay type: functional, organism-based, Red blood cell; conditions: 3D7, Erythrocyte
# Plasmodium falciparum [13] = experiment: Antiplasmodial activity against CQ-resistant Plasmodium falciparum W2 infected in red blood cells assessed as parasite growth inhibition incubated for 72 hrs by SYBR Green I staining based analysis; assay type: functional, organism-based, Red blood cell; conditions: W2, Erythrocyte
# Plasmodium falciparum [14] = experiment: Antiplasmodial activity against CQ-resistant Plasmodium falciparum K1 assessed as parasite growth inhibition; assay type: functional, organism-based
# [15] = Cytotoxicity against African green monkey Vero cells; assay type: toxicity, cell-based; conditions: chlorocebus sabaeus
# [16] = Selectivity index, ratio of CC50 for human erythrocytes to IC50 for Plasmodium falciparum Dd2; assay type: toxicity; conditions: read-out: Ratio CC50/IC50
# Falcipain 2 = target: T1, Falcipain 2 (Plasmodium falciparum, UniProt Q9N6S8); experiment: Inhibition of recombinant Plasmodium falciparum FP2
# T1 sequence (Q9N6S8 whole entry): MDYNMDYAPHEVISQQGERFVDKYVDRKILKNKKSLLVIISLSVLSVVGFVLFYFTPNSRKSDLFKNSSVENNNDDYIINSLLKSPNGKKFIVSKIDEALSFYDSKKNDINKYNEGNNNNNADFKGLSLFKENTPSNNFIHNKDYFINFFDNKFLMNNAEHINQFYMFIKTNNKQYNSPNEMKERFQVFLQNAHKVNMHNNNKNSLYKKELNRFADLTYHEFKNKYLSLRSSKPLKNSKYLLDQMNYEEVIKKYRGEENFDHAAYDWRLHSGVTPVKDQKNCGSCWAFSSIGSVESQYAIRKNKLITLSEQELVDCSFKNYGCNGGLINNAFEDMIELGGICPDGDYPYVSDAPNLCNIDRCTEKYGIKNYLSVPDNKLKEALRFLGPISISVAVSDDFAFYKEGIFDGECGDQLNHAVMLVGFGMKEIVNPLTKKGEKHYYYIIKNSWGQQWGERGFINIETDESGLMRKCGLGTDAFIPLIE
# Plasmodium falciparum [17] = experiment: Antiplasmodial activity against Plasmodium falciparum 3D7 assessed as parasite growth inhibition; assay type: functional, organism-based
# Plasmodium falciparum [18] = experiment: Antimalarial activity against Plasmodium falciparum 3D7 assessed as parasite growth inhibition incubated for 42 hrs by [3H]-hypoxanthine incorporation assay; assay type: functional, organism-based
# [19] = Cytotoxicity against human PC-3 cells incubated for 72 hrs by MTT assay; assay type: toxicity, cell-based
# [20] = Plasmodium falciparum, Erythrocyte, read-out: IC50
structure (smiles),measurement,setting,value
Cc1ccc(COc2ccc(-n3cc(COc4ccc5ccc(=O)oc5c4)nn3)cc2)cc1,IC50,Plasmodium falciparum [1]; rbc,0.38 microg/cm3
COc1ccc(-n2cc(COC3=CC(=O)c4ccccc4C3=O)nn2)cc1F,IC50,Plasmodium falciparum [2],0.8 µM
CCc1nnc2ccc(S(=O)(=O)N(Cc3cccc(F)c3)c3ccc(OC)cc3)cn12,IC50,Plasmodium falciparum [3],4.98 µM
C[C@H]1[C@@H](n2cc(-c3cccc(Cl)c3)nn2)O[C@@H]2O[C@]3(C)CC[C@H]4[C@H](C)CC[C@@H]1[C@@]24OO3,IC50,Plasmodium falciparum [4],0.0037 µM
CCCCCc1ccc(-n2nnc(CCN(CC)CC)c2Cc2ccc(-c3ccc(OC)cc3)cc2)cc1,IC50,Plasmepsin II,0.6 µM
O=C(Cn1cc(CSc2ccc(Br)cc2)nn1)OCc1ccc(Cl)cc1,IC50,Plasmodium falciparum [1]; [20],0.203 µM
C[C@H]1[C@H](n2nncc2-c2cccc(Cl)c2)O[C@@H]2O[C@]3(C)CC[C@H]4[C@H](C)CC[C@@H]1[C@@]24OO3,IC50,Plasmodium falciparum [4],0.0042 µM
Cc1ccc(OCc2cn(-c3ccc(S(N)(=O)=O)cc3)nn2)cc1,IC50,Plasmodium falciparum [5],6.2 mg/L
same,CC50 at 48 h,[6],7.5 mg/L
O=C(Cn1cc(CSc2ccc(Cl)cc2)nn1)OCc1ccc(Cl)cc1,IC50,Plasmodium falciparum [1]; [20],0.208 µM
COc1ccccc1C(=O)/C=C/c1cn(Cc2cn(-c3ccnc4cc(Cl)ccc34)nn2)c2ccccc12,IC50,Plasmodium falciparum [7],2.4 µM
same,IC50,Plasmodium falciparum [8],3.5 µM
C=C[C@H]1CN2CC[C@H]1C[C@@H]2[C@@H](c1ccnc2ccc(OC)cc12)n1cc(CCCCCCCCCCCCCC)nn1,IC50,Plasmodium falciparum [9],0.28 µM
Cc1cc(C)nc(NS(=O)(=O)c2ccc(-n3cc(COc4ccc(Cl)cc4Cl)nn3)cc2)n1,IC50,Plasmodium falciparum [5],16.7 mg/L
C=C[C@H]1CN2CC[C@H]1C[C@@H]2[C@@H](c1ccnc2ccc(OC)cc12)n1cc(CCCCCC)nn1,IC50,Plasmodium falciparum [9],0.28 µM
O=C(Cn1cc(CSc2ccc(Br)cc2)nn1)OCc1ccc([N+](=O)[O-])cc1,IC50,Plasmodium falciparum [1]; [20],0.183 µM
CCCCCc1ccc(-n2nnc(CCN3CCN(C)CC3)c2Cc2ccc(-c3ccc(OC)cc3)cc2)cc1,IC50,Plasmepsin II,1.8 µM
O=C(Cn1cc(COc2ccccc2)nn1)NCCCNc1ccnc2cc(Cl)ccc12,IC50,Plasmodium falciparum [10],0.075 µM
O=C(Cn1cc(-c2ccccc2)nn1)c1ccccc1,IC50,Plasmodium falciparum [11],1.29 µM
O=C(Cn1cc(COc2ccc(Cl)cc2)nn1)NCCNc1ccnc2cc(Cl)ccc12,IC50,Plasmodium falciparum [10],< 0.1 µM
Cc1ccccc1COc1ccc(-n2cc(COc3cc(=O)oc4ccccc34)nn2)cc1,IC50,Plasmodium falciparum [1]; rbc,0.53 microg/cm3
C[C@H](Cn1cc(C(C)(C)O)nn1)C1CCC2[C@@H](O)CCC[C@]12C (stereo partly drawn),IC50,Plasmodium falciparum [11],0.02 µM
Cc1ccccc1C(=O)/C=C/c1cn(Cc2cn(-c3ccnc4cc(Cl)ccc34)nn2)c2ccccc12,IC50,Plasmodium falciparum [7],1.8 µM
same,IC50,Plasmodium falciparum [8],2.7 µM
O=C1C=C(OCc2cn(-c3ccccc3)nn2)C(=O)c2ccccc21,IC50,Plasmodium falciparum [2],1.2 µM
OB1OCc2cc(OCc3cn(CCCNc4ccnc5cc(Cl)ccc45)nn3)ccc21,IC50,Plasmodium falciparum [12],4.13 µM
same,IC50,Plasmodium falciparum [13],3.91 µM
CCCCCc1ccc(-n2nnc(CCN3CCCC3)c2Cc2ccc(-c3ccc(OC)cc3)cc2)cc1,IC50,Plasmepsin II,0.6 µM
COc1cc(/C=C/C(=O)c2ccc(Cl)cc2)ccc1OCc1cn(-c2ccnc3cc(Cl)ccc23)nn1,IC50,Plasmodium falciparum [14],3.14 µM
same,CC50,[15],46.2 µM
O=C(Cn1cc(Oc2ccc(Cl)cc2)nn1)NCCNc1ccnc2cc(Cl)ccc12,IC50,Plasmodium falciparum [10],0.0085 µM
O=C(Cn1cc(CSc2ccc(Cl)cc2)nn1)OCc1ccccc1,IC50,Plasmodium falciparum [1]; [20],0.209 µM
O=c1ccc2ccc(OCc3cn(-c4ccc(OCc5ccc(Br)cc5)cc4)nn3)cc2o1,IC50,Plasmodium falciparum [1]; rbc,0.54 microg/cm3
O=[N+]([O-])c1ccc(Cn2cc(CO)nn2)cc1,selectivity ratio,[16],161
O=c1ccc2ccc(OCc3cn(-c4ccc(OCc5ccc(F)cc5)cc4)nn3)cc2o1,IC50,Plasmodium falciparum [1]; rbc,0.49 microg/cm3
C[C@@H]1[C@@H](n2cc(-c3cccc(Cl)c3)nn2)O[C@@H]2O[C@]3(C)CC[C@H]4[C@H](C)CC[C@@H]1[C@@]24OO3,IC50,Plasmodium falciparum [4],0.0025 µM
C=C[C@H]1CN2CC[C@H]1C[C@@H]2[C@@H](c1ccnc2ccc(OC)cc12)n1cc(CN2CCCC2C(=O)OCC)nn1 (stereo partly drawn),IC50,Plasmodium falciparum [9],0.33 µM
O=c1n(Cc2cccc(Cl)c2)nc2c(S(=O)(=O)N3CCCCC3)cccn12,IC50,Plasmodium falciparum [3],2.24 µM
O=C(Cn1cc(CSc2ccc3ccccc3c2)nn1)OCc1ccc([N+](=O)[O-])cc1,IC50,Plasmodium falciparum [1]; [20],0.207 µM
O=[N+]([O-])c1ccc(-n2cc(COc3cccc4nc(Cl)ccc34)nn2)cc1,IC50,Falcipain 2,16.2 µM
same,IC50,Plasmodium falciparum [17],49.9 µM
O=S(=O)(c1ccc(-n2cc(COc3ccc(I)cc3)nn2)cc1)N1CCN(c2ccccc2)CC1,IC50,Plasmodium falciparum [5],12.9 mg/L
Cc1ccc(COC(=O)Cn2cc(CSc3ccc(Br)cc3)nn2)cc1,IC50,Plasmodium falciparum [1]; [20],0.178 µM
COc1ccc(NS(=O)(=O)c2ccc(-n3cc(COc4c(OC)ccc5cc6[n+](cc45)CCc4cc5c(cc4-6)OCO5)nn3)cc2)cc1.[Cl-],IC50,Plasmodium falciparum [18],0.5 mg/L
same,CC50 at 72 h,[19],> 200 mg/L
Cc1ccc(COC(=O)Cn2cc(CSc3ccc(C)cc3)nn2)cc1,IC50,Plasmodium falciparum [1]; [20],0.204 µM
C=C[C@H]1CN2CC[C@H]1C[C@@H]2[C@@H](c1ccnc2ccc(OC)cc12)n1cc(C[C@H](N)C(=O)O)nn1,IC50,Plasmodium falciparum [9],0.25 µM
ClCCCCn1cc(-c2ccccc2)nn1,IC50,Plasmodium falciparum [11],3.29 µM
